Paper PMC11528044 (Nature Communications, 2024)

Assays:
LdCYP51 [1] = target: T1, LdCYP51 (Leishmania donovani, UniProt A0A3S7WRS7); assay: biochemical
LdCYP5122A1 [2] = target: T2, LdCYP5122A1 (Leishmania donovani, UniProt A0A3S7X0B6); assay: biochemical
T2 sequence (A0A3S7X0B6 61-592): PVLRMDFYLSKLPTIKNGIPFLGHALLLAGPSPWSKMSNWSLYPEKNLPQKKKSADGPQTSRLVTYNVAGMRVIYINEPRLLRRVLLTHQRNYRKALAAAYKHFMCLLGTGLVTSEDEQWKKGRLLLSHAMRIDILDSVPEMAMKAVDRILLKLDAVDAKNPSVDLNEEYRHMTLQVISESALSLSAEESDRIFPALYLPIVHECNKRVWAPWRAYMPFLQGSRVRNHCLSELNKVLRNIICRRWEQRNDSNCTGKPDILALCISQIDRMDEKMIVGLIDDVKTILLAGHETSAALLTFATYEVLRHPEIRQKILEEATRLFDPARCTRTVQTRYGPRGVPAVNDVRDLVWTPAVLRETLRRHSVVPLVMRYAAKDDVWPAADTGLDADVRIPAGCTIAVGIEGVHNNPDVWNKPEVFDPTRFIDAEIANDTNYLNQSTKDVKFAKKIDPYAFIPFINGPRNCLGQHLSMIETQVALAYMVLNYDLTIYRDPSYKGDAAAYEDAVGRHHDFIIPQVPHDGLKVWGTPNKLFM

LdCYP5122A1 [3] = target: T2, LdCYP5122A1
[4] = test system: L. donovani LV82 promastigotes; assay: microbe, parasite or virus in culture; details: Leishmania donovani, 72 h, read-out: EC50 (L. donovani)
CYP51 = details: 50 μM substrate, TbCPR, NADPH, pH 6.2, 37 °C
L. donovani CYP5122A1 = target: T3, L. donovani CYP5122A1 (Leishmania donovani, UniProt A0A3S7X0B6); assay: UV-Vis difference binding spectra of ligands with purified recombinant CYP5122A1
T3 sequence (A0A3S7X0B6 61-592): T2 sequence (A0A3S7X0B6 61-592)

CYP5122A1 = details: 50 μM substrate, TbCPR, NADPH, pH 6.2, 37 °C
L. donovani CYP51 = L. donovani CYP51 (Leishmania donovani, UniProt A0A3S7WRS7); assay: UV-Vis difference binding spectra of ligands with purified recombinant CYP51
Chain of L. donovani CYP51 (A0A3S7WRS7 32-480): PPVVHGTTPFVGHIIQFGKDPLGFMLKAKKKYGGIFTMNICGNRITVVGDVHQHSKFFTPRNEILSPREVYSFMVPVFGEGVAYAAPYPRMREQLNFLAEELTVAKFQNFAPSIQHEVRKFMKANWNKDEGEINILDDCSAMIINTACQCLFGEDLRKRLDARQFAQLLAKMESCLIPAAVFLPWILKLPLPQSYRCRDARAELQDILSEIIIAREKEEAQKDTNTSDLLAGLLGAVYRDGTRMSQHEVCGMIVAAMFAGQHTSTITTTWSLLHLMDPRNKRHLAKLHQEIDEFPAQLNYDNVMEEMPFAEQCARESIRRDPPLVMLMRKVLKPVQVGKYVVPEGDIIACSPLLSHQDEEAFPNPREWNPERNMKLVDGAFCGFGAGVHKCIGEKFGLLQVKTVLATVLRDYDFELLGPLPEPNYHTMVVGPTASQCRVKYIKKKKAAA

[5] = test system: intracellular L. major and L. amazonensis; details: cited from earlier work
[6] = test system: L. donovani LV82 promastigote cultures; assay: Microscopic counts of LV82 promastigote cultures; format: cell-based, Leishmania donovani; details: LV82 promastigotes, cell counts daily for three days
[7] = test system: L. donovani strain 1S2D promastigotes (Ld1S WT and CYP5122A1 mutants); details: promastigote growth, 48 hours
[8] = test system: sterol profile of LV82 promastigotes; assay: LC-MS/MS sterol analysis of inhibitor-treated LV82 promastigotes; format: cell-based, Leishmania donovani; details: 20 μM clotrimazole vs. DMSO, 24 hr
LdCYP51 [9] = target: T1, LdCYP51; details: 100 μM

T1 sequence (A0A3S7WRS7 32-480): as above

Structure (SMILES) | IC50 (LdCYP51 [1]) | IC50 (LdCYP5122A1 [2]) | SI (selectivity index) = IC50 against LdCYP5122A1/IC50 against LdCYP51 (LdCYP5122A1 [3]) | EC50 [4] | Oxidation by reconstituted CYP51 (CYP51) | Binding mode with CYP5122A1 (difference binding spectrum) (L. donovani CYP5122A1) | Oxidation by reconstituted CYP5122A1 (CYP5122A1) | Binding mode with CYP51 (difference binding spectrum) (L. donovani CYP51) | other results
c1ccc(-c2ccc(C(c3ccccc3)n3ccnc3)cc2)cc1 (stereo not shown) [Bifonazole] | 57 ± 8 nM | 330 ± 70 nM | 5.7 | 12 ± 1 µM |  |  |  |  | 
CC(C)=CCC[C@@H](C)[C@H]1CC[C@@]2(C)C3=C(CC[C@]12C)[C@@]1(C)CC[C@H](O)C(C)(C)[C@@H]1CC3 [Lanosterol] |  |  |  |  | C14-demethylation | type I binding | metabolized by this enzyme | typical type I binding | 
Clc1ccc(COC(Cn2ccnc2)c2ccc(Cl)cc2Cl)c(Cl)c1 (stereo not shown) [Miconazole] | 57 ± 3 nM | 1100 ± 200 nM |  |  |  |  |  |  | Growth inhibition of intracellular L. major and L. amazonensis [5]: strongly inhibited the growth
C[C@@H](c1nc(-c2ccc(C#N)cc2)cs1)[C@](O)(Cn1cncn1)c1ccc(F)cc1F [Ravuconazole] | 49 ± 8 nM | 12000 ± 4000 nM | 248 | 12 ± 2 µM |  |  |  |  | 
CC(C)=CCC[C@@H](C)[C@H]1CC[C@H]2C3=C(CC[C@]12C)[C@@]1(C)CC[C@H](O)C(C)(C)C1CC3 (stereo partly drawn) [T-MAS, 4,4-dimethylcholesta-8,24-dien-3β-ol] |  |  |  |  | no oxidation metabolites were detected | type I binding | metabolized by this enzyme | did not elicit any change | 
CC(C)=CCC[C@@H](C)[C@H]1CC[C@H]2C3=CC=C4C[C@@H](O)CC[C@]4(C)[C@H]3CC[C@]12C [7-Dehydrodesmosterol] |  |  |  |  | oxidized by CYP51 to form hydroxylated metabolites | did not induce any appreciable change | No oxidation metabolite formation | atypical difference binding spectrum | 
C[C@@H]1[C@H](O)[C@@H](C)/C=C/C=C/C=C/C=C/C=C/C=C/C=C/[C@H](O[C@@H]2O[C@H](C)[C@@H](O)[C@H](N)[C@@H]2O)C[C@@H]2O[C@](O)(C[C@@H](O)C[C@@H](O)[C@H](O)CC[C@@H](O)C[C@@H](O)CC(=O)O[C@H]1C)C[C@H](O)[C@H]2C(=O)O [Amphotericin B] |  |  |  | 0.14 ± 0.01 µM |  |  |  |  | Leishmanicidal vs. leishmanistatic effect [6]: leishmanicidal effect; inhibition at 10 µM (LdCYP51 [1]; read-out: % inhibition of LdCYP51 at 10 μM): < 25%; inhibition at 10 µM (LdCYP5122A1 [2]; read-out: % inhibition of LdCYP5122A1 at 10 μM): < 25%
CC(C)N1CCN(c2ccc(OCC3COC(Cn4cncn4)(c4ccc(Cl)cc4Cl)O3)cc2)CC1 (stereo not shown) [Terconazole] | 83 ± 9 nM | 12000 ± 3000 nM | 140 | 13 ± 1 µM |  |  |  |  | 
Clc1ccc(CCC(Cn2ccnc2)Sc2c(Cl)cccc2Cl)cc1 (stereo not shown) [Butoconazole] | 73 ± 8 nM | 320 ± 70 nM | 4.4 | 1.9 ± 0.4 µM |  |  |  |  | Leishmanicidal vs. leishmanistatic effect ([6]; listed as butaconazole): leishmanistatic effect
C=C1CCN([C@H](C)[C@](O)(Cn2cncn2)c2ccc(F)cc2F)CC1 [Efinaconazole] | 68 ± 2 nM | 6200 ± 1700 nM | 92 | 15 ± 1 µM |  |  |  |  | 
Clc1ccc(C(Cn2ccnc2)OCc2c(Cl)cccc2Cl)c(Cl)c1 (stereo not shown) [Isoconazole] |  |  |  | 6.2 ± 0.5 µM |  |  |  |  | 
CC(C)=CCC[C@@H](C)[C@H]1CC[C@H]2C3=C(CC[C@]12C)[C@@]1(C)CC[C@H](O)C[C@@H]1CC3 [Zymosterol, 5α-Cholesta-8,24-dien-3β-ol] |  |  |  |  | oxidized by CYP51 to form hydroxylated metabolites | did not induce any appreciable change | No oxidation metabolite formation | atypical difference binding spectrum | 
Clc1ccccc1C(c1ccccc1)(c1ccccc1)n1ccnc1 [Clotrimazole] | 68 ± 4 nM | 260 ± 80 nM |  |  |  | type II binding |  | type II binding | Sensitivity of CYP5122A1 mutants compared with Ld1S WT [7]: no significant differences; 4,14-Dimethylzymosterol level normalized to DMSO-treated parasites [8]: 43 ± 18; 4CH2OH-LS level normalized to DMSO-treated parasites [8]: 2.3 ± 0.5; 5-Dehydroepisterol level normalized to DMSO-treated parasites [8]: 0.20 ± 0.04; 7-Dehydrodesmosterol level normalized to DMSO-treated parasites [8]: 0^d,**; 14-Methylfecosterol level normalized to DMSO-treated parasites [8]: Accumulated^a,***; 14-Methylzymosterol level normalized to DMSO-treated parasites [8]: 2.3 ± 0.4; Cholesterol (exogenous) level normalized to DMSO-treated parasites [8]: 1.1 ± 0.2; Ergosta-5,7-dienol level normalized to DMSO-treated parasites [8]: 0.79 ± 0.26; Ergostatetraenol level normalized to DMSO-treated parasites [8]: 0 ^d,**; Ergosterol level normalized to DMSO-treated parasites [8]: 0.26 ± 0.07; FF-MAS level normalized to DMSO-treated parasites [8]: Not detected; Lanosterol level normalized to DMSO-treated parasites [8]: 2.7 ± 0.9; T-MAS level normalized to DMSO-treated parasites [8]: Not detected; Zymosterol level normalized to DMSO-treated parasites ([8]; not separated from cholesta-7,24-dienol): 0.018 ± 0.006; 4-Methylzymosterol level normalized to DMSO-treated parasites ([8]; not separated from episterol and fecosterol): 0.025 ± 0.013; Cholesta-7,24-dienol level normalized to DMSO-treated parasites ([8]; not separated from zymosterol): 0.018 ± 0.006; Growth inhibition of intracellular L. major and L. amazonensis [5]: strongly inhibited the growth
Clc1ccc(C(Cn2ccnc2)OCc2csc3c(Cl)cccc23)c(Cl)c1 (stereo not shown) [Sertaconazole] | 64 ± 7 nM | 1100 ± 200 nM | 17 | 7.1 ± 0.5 µM |  |  |  |  | 
C[C@@H](c1nc(-c2ccc(C#N)cc2)cs1)[C@](O)(Cn1cncn1)c1cc(F)ccc1F [Isavuconazole] | 43 ± 7 nM | 2600 ± 700 nM | 60 | 12 µM |  |  |  |  | 
CC(C)=CCC[C@@H](C)[C@H]1CC=C2C3=C(CC[C@@]21C)[C@@]1(C)CC[C@H](O)C(C)(C)[C@@H]1CC3 [FF-MAS, 14-demethyl-14-dehydrolanosterol] |  |  |  |  | no oxidation metabolites were detected | type I binding | metabolized by this enzyme | did not elicit any change | 
Clc1ccc(COC(Cn2ccnc2)c2ccc(Cl)cc2Cl)cc1 (stereo not shown) [Econazole] | 46 ± 4 nM | 470 ± 130 nM |  |  |  |  |  |  | 
N=C(N)c1ccc(OCCCCCOc2ccc(C(=N)N)cc2)cc1 [Pentamidine] |  |  |  | 14 ± 1 µM |  |  |  |  | Inhibition of LdCYP51 at 100 μM (LdCYP51 [9]): No inhibition at 100 μM; Inhibition of LdCYP5122A1 at 100 μM (LdCYP5122A1 [3]; 100 μM): No inhibition at 100 μM
CC(C)=CCC[C@@H](C)[C@H]1CC[C@@]2(C)C3=C(CC[C@]12C)[C@@]1(C)CC[C@H](O)[C@@H](C)[C@@H]1CC3 [4,14-DMZ, 4α,14α-Dimethylzymosterol] |  |  |  |  | C14-demethylation | type I binding | metabolized by this enzyme | typical type I binding | 
